According to ChEMBL document CHEMBL1124653, “11 beta-nitrate estrane analogues: potent estrogens” (1989):

Target: Estrogen receptor (Rattus norvegicus) (UniProt P06211+Q62986)
Experiment: Estrogenic potency in rats by subcutaneous dose relative to estradiol
Format: functional

| Relative potency | Compound |
| --- | --- |
| 7470 | CC(=O)Oc1ccc2c(c1)C[C@@H](C)[C@@H]1[C@@H]2[C@@H](O[N+](=O)[O-])C[C@]2(C)C(=O)CC[C@@H]12 (stereo in doubt; 3b) |
| 4 | CC(=O)Oc1ccc2c(c1)CC[C@H]1[C@@H]3CCC(=O)[C@@]3(C)C[C@H](O[N+](=O)[O-])[C@]21O |
| 34 | CC(=O)Oc1ccc2c(c1)C[C@@H](C)[C@@H]1[C@@H]2[C@@H](O[N+](=O)[O-])C[C@]2(C)C(=O)CC[C@@H]12 (stereo in doubt; 2b) |
